Experimental data published in ChEMBL document CHEMBL6071207, “In Vivo-Active Soluble Epoxide Hydrolase-Targeting PROTACs with Improved Potency and Stability” (ACS Med Chem Lett, 2024).
Activity calls are given as the source filed them. The rule behind the calls is not given here.

How the values were obtained:
[1] = Tmax in male CD-1 mouse at 10 mg/kg, ip measured up to 24 hrs by LC-MS/MS analysis; format: ADME, organism-based; conditions: in vivo
[2] = target: T1, Bifunctional epoxide hydrolase 2 (Mus musculus, UniProt P34914); assay: Inhibition of mouse recombinant sEH using fluorogenic substrate
T1 sequence (P34914 whole entry): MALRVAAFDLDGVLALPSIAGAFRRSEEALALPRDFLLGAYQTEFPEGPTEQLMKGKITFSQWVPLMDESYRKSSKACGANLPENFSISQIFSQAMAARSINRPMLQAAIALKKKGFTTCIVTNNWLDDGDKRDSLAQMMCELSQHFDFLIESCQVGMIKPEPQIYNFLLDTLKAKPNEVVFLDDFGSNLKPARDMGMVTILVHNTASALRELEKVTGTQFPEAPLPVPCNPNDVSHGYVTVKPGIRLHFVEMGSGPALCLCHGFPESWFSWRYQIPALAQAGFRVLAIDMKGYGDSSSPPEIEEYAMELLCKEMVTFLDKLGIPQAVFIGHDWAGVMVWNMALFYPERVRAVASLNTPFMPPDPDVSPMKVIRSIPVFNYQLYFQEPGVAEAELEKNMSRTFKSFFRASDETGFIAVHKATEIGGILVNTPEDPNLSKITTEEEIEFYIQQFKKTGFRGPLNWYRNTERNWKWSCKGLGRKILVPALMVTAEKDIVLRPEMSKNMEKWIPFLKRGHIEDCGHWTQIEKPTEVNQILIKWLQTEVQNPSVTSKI

[3] = tested on: HepG2; assay: Cytotoxicity against human HepG2 cells assessed as cell viability at 1 uM incubated for 24 hrs by MTT assay; conditions: HepG2, 24 h, read-out: Activity
[4] = AUC (0 to infinity) in male CD-1 mouse at 10 mg/kg, ip measured up to 24 hrs by LC-MS/MS analysis; format: ADME, organism-based; conditions: in vivo
[5] = Cmax in male CD-1 mouse at 10 mg/kg, ip measured up to 24 hrs by LC-MS/MS analysis; format: ADME, organism-based; conditions: in vivo
[6] = MRT (0 to infinity) in male CD-1 mouse at 10 mg/kg, ip measured up to 24 hrs by LC-MS/MS analysis; format: ADME, organism-based; conditions: in vivo
[7] = Half life in male CD-1 mouse at 10 mg/kg, ip measured up to 24 hrs by LC-MS/MS analysis; format: ADME, organism-based; conditions: in vivo
[8] = tested on: HEK293T; assay: Inhibition of IRE1alpha phosphorylation in HEK293T cells at 100 nM pretreated with compound for 12 hrs followed by thapsigargin addition and measured after 24 hrs by immunoblotting analysis; format: cell-based; conditions: Homo sapiens, time 36.0 hrs
[9] = target: T2, Eukaryotic translation initiation factor 2-alpha kinase 3 (Homo sapiens) (UniProt Q9NZJ5); assay: Inhibition of PERK phosphorylation in HEK293T cells at 100 nM pretreated with compound for 12 hrs followed by thapsigargin addition and measured after 24 hrs by immunoblotting analysis; format: cell-based; conditions: time 36.0 hrs
T2 sequence (whole entry): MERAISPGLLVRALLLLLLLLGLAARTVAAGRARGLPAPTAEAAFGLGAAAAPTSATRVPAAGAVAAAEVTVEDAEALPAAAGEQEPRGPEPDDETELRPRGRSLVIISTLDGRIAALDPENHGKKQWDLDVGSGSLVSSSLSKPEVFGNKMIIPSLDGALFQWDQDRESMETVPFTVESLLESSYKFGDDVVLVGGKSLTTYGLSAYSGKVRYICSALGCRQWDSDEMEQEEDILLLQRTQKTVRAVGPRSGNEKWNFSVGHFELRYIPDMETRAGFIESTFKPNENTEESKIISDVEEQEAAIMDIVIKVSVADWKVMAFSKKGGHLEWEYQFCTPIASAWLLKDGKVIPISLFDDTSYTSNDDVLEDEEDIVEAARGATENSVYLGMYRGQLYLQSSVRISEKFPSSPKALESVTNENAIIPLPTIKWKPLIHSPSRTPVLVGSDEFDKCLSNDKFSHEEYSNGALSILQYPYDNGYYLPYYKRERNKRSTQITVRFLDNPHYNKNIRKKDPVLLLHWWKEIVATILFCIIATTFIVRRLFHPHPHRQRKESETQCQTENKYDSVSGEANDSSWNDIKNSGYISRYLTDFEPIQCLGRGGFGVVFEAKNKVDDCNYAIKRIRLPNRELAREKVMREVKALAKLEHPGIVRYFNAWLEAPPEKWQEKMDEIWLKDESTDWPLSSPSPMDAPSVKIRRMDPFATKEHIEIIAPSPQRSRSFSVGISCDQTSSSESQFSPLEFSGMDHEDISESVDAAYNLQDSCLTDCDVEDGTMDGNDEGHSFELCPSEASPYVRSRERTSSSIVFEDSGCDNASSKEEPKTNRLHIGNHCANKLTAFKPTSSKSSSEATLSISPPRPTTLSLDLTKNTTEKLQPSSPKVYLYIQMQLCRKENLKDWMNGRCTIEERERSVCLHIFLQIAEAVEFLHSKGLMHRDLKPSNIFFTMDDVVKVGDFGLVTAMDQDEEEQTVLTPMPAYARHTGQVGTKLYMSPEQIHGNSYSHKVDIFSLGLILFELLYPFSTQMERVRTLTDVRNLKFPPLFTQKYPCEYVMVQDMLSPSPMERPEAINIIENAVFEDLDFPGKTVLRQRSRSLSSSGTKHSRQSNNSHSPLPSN

[10] = target: Eukaryotic translation initiation factor 2 subunit 1 (Homo sapiens) (UniProt P05198); assay: Inhibition of eIF2alpha phosphorylation in HEK293T cells at 100 nM pretreated with compound for 12 hrs followed by thapsigargin addition and measured after 24 hrs by immunoblotting analysis; format: cell-based; conditions: time 36.0 hrs
Eukaryotic translation initiation factor 2 subunit 1 (Homo sapiens), sequence (P05198 whole entry): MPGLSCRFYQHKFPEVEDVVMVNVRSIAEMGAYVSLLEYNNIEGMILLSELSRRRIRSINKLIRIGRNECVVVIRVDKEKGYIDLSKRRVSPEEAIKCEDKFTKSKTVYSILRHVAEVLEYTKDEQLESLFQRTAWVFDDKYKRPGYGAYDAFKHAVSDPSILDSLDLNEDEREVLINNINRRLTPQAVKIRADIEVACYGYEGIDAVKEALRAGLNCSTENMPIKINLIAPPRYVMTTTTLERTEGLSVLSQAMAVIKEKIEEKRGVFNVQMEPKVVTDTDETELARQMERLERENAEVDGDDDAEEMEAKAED

[11] = Metabolic stability in mouse liver microsome assessed as half life incubated for 5 to 45 mins in presence of NADPH by UPLC-MS/MS analysis; format: ADME; conditions: liver microsomes, time 5-45 min
[12] = Metabolic stability in mouse liver microsome assessed as intrinsic clearance incubated for 5 to 45 mins in presence of NADPH by UPLC-MS/MS analysis; format: ADME; conditions: liver microsomes, time 5-45 min, read-out: CLH
[13] = Metabolic stability in mouse liver microsome assessed as parent compound remaining incubated for 5 to 45 mins in absence of NADPH by UPLC-MS/MS analysis; format: ADME; conditions: microsomes, time 5-45 min
[14] = Chemical stability of compound in cell culture medium assessed as half life measured for 24 hrs by LC-MS analysis; format: physicochemical
[15] = target: T2, Eukaryotic translation initiation factor 2-alpha kinase 3 (Homo sapiens); assay: Inhibition of PERK phosphorylation in HEK293T cells at 100 to 1000 nM pretreated with compound for 12 hrs followed by thapsigargin addition and measured after 24 hrs by immunoblotting analysis; format: cell-based; conditions: dose 100-1000 nM, time 36.0 hrs
[16] = tested on: HEK-293T; assay: Induction of apoptosis in HEK293T cells assessed as reduction in thapsigargin-induced cell death pretreated with compound for 12 hrs followed by thapsigargin addition and measured after 24 hrs by propidium iodide staining based analysis; format: functional; conditions: Homo sapiens, time 36.0 hrs
[17] = target: T3, Protein cereblon/Bifunctional epoxide hydrolase 2 (Mus musculus) (UniProt P34914+Q8C7D2); assay: In-vivo PROTAC activity at sEH/CRBN in Male C57BL/6J mouse assessed as reduction in sEH level in liver at 12 mg/kg, ip measured after 24 hrs by immunoblotting analysis; format: functional, organism-based
T3 sequence (Q8C7D2 whole entry, looked up, one chain of several): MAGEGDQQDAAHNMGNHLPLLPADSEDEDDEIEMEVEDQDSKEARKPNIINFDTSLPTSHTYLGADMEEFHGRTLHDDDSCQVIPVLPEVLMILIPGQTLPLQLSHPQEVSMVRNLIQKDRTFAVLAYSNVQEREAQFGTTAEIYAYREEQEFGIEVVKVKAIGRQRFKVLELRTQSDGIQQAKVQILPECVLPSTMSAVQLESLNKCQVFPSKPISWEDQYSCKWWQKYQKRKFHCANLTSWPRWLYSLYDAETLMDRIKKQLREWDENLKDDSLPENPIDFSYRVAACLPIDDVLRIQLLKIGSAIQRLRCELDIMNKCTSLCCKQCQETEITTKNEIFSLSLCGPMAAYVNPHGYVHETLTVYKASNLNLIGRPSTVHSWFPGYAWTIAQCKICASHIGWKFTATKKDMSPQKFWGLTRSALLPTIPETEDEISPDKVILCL

[18] = target: Eukaryotic translation initiation factor 2 subunit 1 (Homo sapiens) (UniProt P05198); assay: Inhibition of eIF2alpha phosphorylation in HEK293T cells at 100 to 1000 nM pretreated with compound for 12 hrs followed by thapsigargin addition and measured after 24 hrs by immunoblotting analysis; format: cell-based; conditions: dose 100-1000 nM, time 36.0 hrs
[19] = tested on: HEK-293T; assay: Induction of apoptosis in HEK293T cells assessed as chromatin condensation by measuring improvement in cell survival pretreated with compound for 12 hrs followed by thapsigargin addition and measured after 24 hrs by Hoechst33258 staining based analysis; format: functional; conditions: Homo sapiens, time 36.0 hrs
[20] = tested on: HEK293T; assay: Inhibition of IRE1alpha phosphorylation in HEK293T cells at 100 to 1000 nM pretreated with compound for 12 hrs followed by thapsigargin addition and measured after 24 hrs by immunoblotting analysis; format: cell-based; conditions: Homo sapiens, dose 100-1000 nM, time 36.0 hrs
[21] = target: T3, Protein cereblon/Bifunctional epoxide hydrolase 2 (Mus musculus); assay: In-vivo PROTAC activity at sEH/CRBN in Male C57BL/6J mouse assessed as reduction in sEH level in BAT at 12 mg/kg, ip measured after 24 hrs by immunoblotting analysis; format: functional, organism-based

O=C1CCC(N2Cc3ccc(N4CCN(CC5CCN(C(=O)CCCCCCCCNC(=O)c6ccc(O[C@H]7CC[C@H](NC(=O)Nc8ccc(OC(F)(F)F)cc8)CC7)cc6)CC5)CC4)cc3C2=O)C(=O)N1 (some centres undefined)
Tmax [1]: 0.33 h
IC50 [2]: 4.8 nM
viability at 1 µM [3]: 7%
AUC(0-inf) [4]: 31000 ng·h/mL
Cmax [5]: 3500 ng/mL
MRT inf [6]: 9.3 h
half-life [7]: 7.1 h

O=C1CCC(N2C(=O)c3cccc(N4CCN(CC5CCN(C(=O)CCCCCCCCNC(=O)c6ccc(O[C@H]7CC[C@H](NC(=O)Nc8ccc(OC(F)(F)F)cc8)CC7)cc6)CC5)CC4)c3C2=O)C(=O)N1 (some centres undefined)
IC50 [2]: 1.8 nM
viability at 1 µM [3]: 24%

O=C(Nc1ccc(OC(F)(F)F)cc1)N[C@H]1CC[C@H](Oc2ccc(C(=O)O)cc2)CC1
inhibition [8]: inactive
inhibition [9]: inactive
inhibition [10]: inactive

O=C1CCC(N2C(=O)c3cc(F)c(N4CCN(C(=O)CCCCCCCCNC(=O)c5ccc(O[C@H]6CC[C@H](NC(=O)Nc7ccc(OC(F)(F)F)cc7)CC6)cc5)CC4)cc3C2=O)C(=O)N1 (some centres undefined)
IC50 [2]: 2.2 nM
viability at 1 µM [3]: -6%

O=C1CCC(N2C(=O)c3cccc(N4CCN(C(=O)CCCCCCCCNC(=O)c5ccc(O[C@H]6CC[C@H](NC(=O)Nc7ccc(OC(F)(F)F)cc7)CC6)cc5)CC4)c3C2=O)C(=O)N1 (some centres undefined)
IC50 [2]: 0.9 nM
viability at 1 µM [3]: -47%

O=C1CCC(N2C(=O)c3ccc(N4CCN(C(=O)CCCCCCCCNC(=O)c5ccc(O[C@H]6CC[C@H](NC(=O)Nc7ccc(OC(F)(F)F)cc7)CC6)cc5)CC4)cc3C2=O)C(=O)N1 (some centres undefined)
half-life [11]: 0.517 h
IC50 [2]: 9.9 nM
CLint scaled [12]: 170 mL/min/kg
Stability [13]: > 99%
half-life [14]: > 24 h

O=C1CCC(N2C(=O)c3ccc(N4CCN(CC5CCN(C(=O)CCCCCCCCNC(=O)c6ccc(O[C@H]7CC[C@H](NC(=O)Nc8ccc(OC(F)(F)F)cc8)CC7)cc6)CC5)CC4)cc3C2=O)C(=O)N1 (some centres undefined)
half-life [11]: > 2 h
Tmax [1]: 6.7 h
IC50 [2]: 210 nM
inhibition [15]: Active
viability at 1 µM [3]: -38%
Activity [16]: Active
CLint scaled [12]: 43 mL/min/kg
AUC(0-inf) [4]: 58000 ng·h/mL
Stability [13]: > 99%
half-life [14]: > 24 h
Activity [17]: Active
Cmax [5]: 2800 ng/mL
MRT inf [6]: 17 h
inhibition [18]: Active
Activity [19]: Active
inhibition [20]: Active
Activity [21]: Active
half-life [7]: 12 h
